Experiments:
NEV-R = test: MT4 cell assay, antiviral HIV activity (propidium iodide); assay type: cell-based; conditions: Human immunodeficiency virus 1, MT4, read-out: IC50 (nM) Range
WTRVA = test: HeLa cell assay (HIV-LTR β-galactosidase reporter); assay type: cell-based, HIV-1; conditions: Human immunodeficiency virus 1, Virus Type WTRVA, read-out: IC50 (nM) Range
Procedure: (§1) The HeLa cell assay was performed according to a modification of Kimpton J. and Emerman M., Detection of replication-competent and pseudotyped human immunodeficiency virus with a sensitive cell line on the basis of activation of an integrated β-galactosidase gene, J. Virol. 66:2232-2239 (1992), in which HIV-1 infection is detected by the activation of an HIV-LTR driven β-galactosidase reporter that is integrated into the genome of a CD4^+ HeLa cell line. Quantitation of β-galactosidase is achieved by measuring the activation of a chemiluminescent substrate (Tropix). The concentration of each compound required to inhibit 50% (IC50) of the HIV-1 induced β-galactosidase signal, relative to untreated controls, was determined for each isogenic, recombinant virus.
(§2) HeLa-CD4-LTR-β-gal cells were obtained from the NIH AIDS Research and Reference Reagent Program. Cells were propagated in DMEM containing 10% fetal bovine serum, 0.2 mg/ml geneticin and 0.1 mg/ml hygromycin B. Cells were routinely split by trypsinization when confluency reached 80% (approximately every 2 to 3 days).
(§3) DNA encoding the HIV-1 reverse transcriptase was subcloned from a M13 phage into a general shuttle vector, pBCSK+, as a ˜1.65 kbp EcoRI/HindIII ended DNA fragment. The HIV DNA insert of the resulting plasmid, pRT2, was completely sequenced on both strands prior to use in site directed mutagenesis experiments. Specific amino acid replacements were made using Stratagene Quick Change reagents and mutagenic oligonucleotides from Oligos. Following mutagenesis, the entire mutant RT coding sequence was verified by sequencing both DNA strands.
(§4) Mutant HIV-1 strains were isolated by a modified Recombinant Virus Assay (Kellam P. and Larder B., Recombinant virus assay: a rapid, phenotypic assay for assessment of drug susceptibility of human immunodeficiency virus type 1 isolates, Antimicrobial Agents and Chemotherapy, 38:23-30, 1994). 1×10^7 Jurkat T-cells (maintained in RPMI containing 10% fetal bovine serum, split 1:5 every 5 to 6 days) were co-transfected with EcoRI/HindIII digested mutant RT plasmid and Bst EII-digested HIV-1HXB2ΔRT DNA in the presence of DMRIE-C transfection reagent (Gibco) according to supplier's recommended protocol. Each mutant RT coding sequence was crossed into the RT-deleted HIV-1 viral DNA backbone by in vivo homologous recombination. Transfected cell cultures were expanded and monitored until syncitia formation and CPE were extensive. Virus was harvested by clear spin of the culture supernatants and frozen at −80 C as primary stock. Recombinant progeny virus was sequenced in the RT region to confirm the mutant genotype. Virus stocks were further expanded by infection of Jurkat cells, harvested and stored as frozen aliquots. Stocks were titered in HeLa MAGI cells for assay.
(§5) The HIV-1HXB2 mutants were titered in the HeLa MAGI assay system to determine the relative light units (RLU) per ml, a measure of infectivity relevant for this assay system. Virus stocks were diluted in a 2-fold series into DMEM containing 10% fetal bovine serum plus 20 ug/ml DEAE-dextran and assayed as described in the Experimental Protocol section, below.
(§6) 96-well microtiter plate(s) (Costar #3598) were seeded with 3×10^3 HeLa-CD4-LTR-β-gal in 100 μl DMEM containing 10% fetal bovine serum. Plates were placed in a 37° C., 5% CO2 humidified incubator overnight. The following day, mutant virus stocks were thawed in a room temperature water bath and diluted into DMEM containing 10% fetal bovine serum and 20 μg/ml DEAE-dextran to achieve an input of 1500 to 2000 RLU/ml. All media was removed with an 8 channel manifold aspirator and 35 μl (50 to 70 total RLUs) of diluted virus was added to each well for virus adsorption. Plates were placed in a 37° C., 5% CO2 humidified incubator for 1.5 to 2 hours.
(§7) Compound titration plates were prepared at 1.35× final concentration during the virus adsorption period. […]

[1] = test system: isogenic HIV-1 RT mutant virus K103N; test: HeLa cell assay (HIV-LTR β-galactosidase reporter); assay type: cell-based; conditions: Human immunodeficiency virus 1, HeLa, read-out: IC50 (nM) Range
Procedure: as §1, §2, §3, §4, §5, §6, §7

[2] = test system: isogenic HIV-1 RT mutant virus Y181C; test: HeLa cell assay (HIV-LTR β-galactosidase reporter); assay type: cell-based; conditions: Human immunodeficiency virus 1, HeLa, read-out: IC50 (nM) Range
Procedure: as §1, §2, §3, §4, §5, §6, §7

[3] = test system: isogenic HIV-1 RT mutant virus K103N/Y181C; test: HeLa cell assay (HIV-LTR β-galactosidase reporter); assay type: cell-based; conditions: Human immunodeficiency virus 1, HeLa, read-out: IC50 (nM) Range
Procedure: as §1, §2, §3, §4, §5, §6, §7

HIV-1 (strain IIIB) = test: MT4 cell assay, antiviral HIV activity (propidium iodide); assay type: cell-based; conditions: Human immunodeficiency virus 1, IIIB; Virus Type HIV-1; Assay MT4; read-out: IC50 (nM) Range
Procedure: Antiviral HIV activity and compound-induced cytotoxicity were measured in parallel by means of a propidium iodide based procedure in the human T-cell lymphotropic virus transformed cell line MT4. Aliquots of the test compounds were serially diluted in medium (RPMI 1640, 10% fetal calf serum (FCS), and gentamycin) in 96-well plates (Costar 3598) using a Cetus Pro/Pette. Exponentially growing MT4 cells were harvested and centrifuged at 1000 rpm for 10 min in a Jouan centrifuge (model CR 4 12). Cell pellets were resuspended in fresh medium (RPMI 1640, 20% FCS, 20% IL-2, and gentamycin) to a density of 5×10^5 cells/ml. Cell aliquots were infected by the addition of HIV-1 (strain IIIB) diluted to give a viral multiplicity of infection of 100×TCID50. A similar cell aliquot was diluted with medium to provide a mock-infected control. Cell infection was allowed to proceed for 1 hr at 37° C. in a tissue culture incubator with humidified 5% CO2 atmosphere. After the 1 hr incubation the virus/cell suspensions were diluted 6-fold with fresh medium, and 125 μl of the cell suspension was added to each well of the plate containing pre-diluted compound. Plates were then placed in a tissue culture incubator with humidified 5% CO2 for 5 days. At the end of the incubation period, 27 μl of 5% Nonidet-40 was added to each well of the incubation plate. After thorough mixing with a Costar multitip pipetter, 60 μl of the mixture was transferred to filter-bottomed 96-well plates. The plates were analyzed in an automated assay instrument (Screen Machine, Idexx Laboratories). The control and standard used was 3′-azido-3′-deoxythymidine tested over a concentration range of 0.01 to 1 μM in every assay. […] The assay-makes use of a propidium iodide dye to estimate the DNA content of each well.
The antiviral effect of a test compound is reported as an IC50, i.e. the inhibitory concentration that would produce a 50% decrease in the HIV-induced cytopathic effect. This effect is measured by the amount of test compound required to restore 50% of the cell growth of HIV-infected MT4 cells, compared to uninfected MT4 cell controls. IC50 was calculated by RoboSage, Automated Curve Fitting Program, version 5.00, 10 Jul. 1995.
For each assay plate, the results (relative fluorescence units, rfU) of wells containing uninfected cells or infected cells with no compound were averaged, respectively. For measurements of compound-induced cytotoxicty, results from wells containing various compound concentrations and uninfected cells were compared to the average of uninfected cells without compound treatment. Percent of cells remaining is determined by the following formula: Percent of cells remaining=(compound−treated uninfected cells, rfU/untreated uninfected cells)×100.
A level of percent of cells remaining of 79% or less indicates a significant level of direct compound-induced cytotoxicity for the compound at that concentration. When this condition occurs the results from the compound-treated infected wells at this concentration are not included in the calculation of IC50.
For measurements of compound antiviral activity, results from wells containing various compound concentrations and infected cells are compared to the average of uninfected and infected cells without compound treatment. Percent inhibition of virus is determined by the following formula: Percent inhibition of virus=(1−((ave. untreated uninfected cells−treated infected cells)/(ave. untreated uninfected cells−ave. untreated infected cells)))×100

[4] = test system: isogenic HIV-1 RT mutant virus V106A/Y181C; test: HeLa cell assay (HIV-LTR β-galactosidase reporter); assay type: cell-based; conditions: Human immunodeficiency virus 1, HeLa, read-out: IC50 (nM) Range
Procedure: as §1, §2, §3, §4, §5, §6, §7

[5] = test system: isogenic HIV-1 RT mutant virus V106I/Y181C; test: HeLa cell assay (HIV-LTR β-galactosidase reporter); assay type: cell-based; conditions: Human immunodeficiency virus 1, HeLa, read-out: IC50 (nM) Range
Procedure: as §1, §2, §3, §4, §5, §6, §7

[6] = test system: isogenic HIV-1 RT mutant virus V106I; test: HeLa cell assay (HIV-LTR β-galactosidase reporter); assay type: cell-based; conditions: Human immunodeficiency virus 1, HeLa, read-out: IC50 (nM) Range
Procedure: as §1, §2, §3, §4, §5, §6, §7

[7] = test system: isogenic HIV-1 RT mutant virus V106A; test: HeLa cell assay (HIV-LTR β-galactosidase reporter); assay type: cell-based; conditions: Human immunodeficiency virus 1, HeLa, read-out: IC50 (nM) Range
Procedure: as §1, §2, §3, §4, §5, §6, §7

Compound	melting point	IC50 (NEV-R)	IC50 (WTRVA)	IC50 [1]	IC50 [2]	IC50 [3]	IC50 (HIV-1 (strain IIIB))	IC50 [4]	IC50 [5]	IC50 [6]	IC50 [7]
COc1ccc(NC(=O)COc2ccc(Cl)cc2C(=O)c2cc(F)cc(F)c2)cn1 [Compound 274]	185 to 187 °C	–	–	–	–	–	–	–	–	–	–
O=C(COc1ccc(Cl)cc1C(=O)c1cc(F)cc(F)c1)Nc1ccc(Cl)nc1 [Compound 275]	198 to 200 °C	–	–	–	–	–	–	–	–	–	–
O=C(c1cc(F)cc(F)c1)c1cc(Cl)ccc1OCC(=O)N1CCc2ccccc21 [Compound 276]	158 to 160 °C	–	–	–	–	–	–	–	–	–	–
O=C(COc1ccc(Cl)cc1C(=O)c1cc(F)cc(F)c1)Nc1ccc2c(c1)CS(=O)(=O)C2 [Compound 277]	197 to 199 °C	–	–	–	–	–	–	–	–	–	–
CS(=O)(=O)Nc1ccc(NC(=O)COc2ccc(Cl)cc2C(=O)c2ccccc2)cc1 [Compound 338]	–	11 to 100 nM	< 10 nM	11 to 100 nM	11 to 100 nM	101 to 1000 nM	< 10 nM	–	–	–	–
O=C(COc1ccc(Cl)cc1C(=O)c1ccccc1)Nc1ccc2cn[nH]c2c1 [Compound 387]	–	11 to 100 nM	< 10 nM	< 10 nM	11 to 100 nM	11 to 100 nM	< 10 nM	–	–	–	–
O=C(COc1ccc(Cl)cc1C(=O)c1ccco1)Nc1ccc2cn[nH]c2c1 [Compound 435]	–	11 to 100 nM	< 10 nM	< 10 nM	11 to 100 nM	101 to 1000 nM	< 10 nM	–	–	–	–
Cc1cc(Cl)cc(C(=O)c2cc(Cl)ccc2OCC(=O)Nc2ccc(S(N)(=O)=O)cc2C)c1 [Compound 483]	–	< 10 nM	11 to 100 nM	101 to 1000 nM	101 to 1000 nM	–	11 to 100 nM	101 to 1000 nM	11 to 100 nM	< 10 nM	–
Cc1cc(S(N)(=O)=O)ccc1NC(=O)COc1ccc(Cl)cc1C(=O)c1cc(C#N)cc(C#N)c1 [Compound 601]	–	< 10 nM	< 10 nM	< 10 nM	< 10 nM	–	< 10 nM	–	–	–	< 10 nM
